Experimental data reported in PMC5267425, “Identification of small molecule modulators of HIV-1 Tat and Rev protein accumulation” (Retrovirology, 2017).

Test: XTT assay, SupT1 24STNLESG cells
Assay type: cell-based
Conditions: human
Procedure: Additional file 1: Figure S1. 791 and 833 Suppress HIV-1 Gene Expression in SupT1 24NESLG Cell Line. a Schematic of HIV-1 provirus used to generated the stably transduced SupT1 cell line. b Effect of 791 and 833 on Gag expression in SupT1 NLESG cells. Cells were treated with indicated concentrations of 791/833 then HIV-1 expression induced by PMA addition. Media harvested after 24 h was subsequently assayed using Gag (p24) ELISA. Cell viability was measured by an XTT assay. 892 was not active in this cell line at the concentrations tested Additional file 2: Figure S7. Effect of compounds on CEM-GXR cell viability. Evaluation of 791, 833, and 892 on CEM-GXR cell viability in the Guava ViaCount assay. Cells were analyzed after 24 h incubation with the compounds at the indicated concentrations ranging between 0–47 μM (791), 0–5 μM (833), or 0–62.5 μM (892). Results are expressed as the percentage (%) of viable cells relative to DMSO treatment ±SEM of two independent experiments performed in triplicate. […] Images are cropped to show a representative field of view. b The dose range of the compounds which inhibit HIV-1 GagGFP expression in HeLa rtTA HIVGagGFP C7 cells was measured by mean fluorescence intensity and expressed relative to fluorescence intensity in DMSO-treated samples (N ≥ 3, *p ≤ 0.05, **p ≤ 0.01, and ***p ≤ 0.001). […]

SMILES	CC50 at 24 h [µM]
O=C(NC(=S)NNC(=O)c1ccccc1O)c1ccc(-c2ccccc2)cc1 [Compound 833, N-([2-(2-hydroxybenzoyl)hydrazino]carbonothioyl}-4-biphenylcarboxamide]	> 20
Cc1cc(NCc2cccnc2)n2ncc(-c3ccc(Cl)cc3)c2n1 [Compound 791, 3-(4-chlorophenyl)-5-methyl-N-(3-pyridinylmethyl)pyrazolo[1,5-a]pyrimidin-7-amine]	> 60
